We go through ten compounds from ChEMBL document CHEMBL5465560, “Selectivity Literature for EUbOPEN Chemogenomic Library” (2024).

Molecules are shown by their SMILES. pIC50: −log10 of the molar value. Bounds are passed on as bounds.

Assay [1] addresses Protein arginine N-methyltransferase 8 (Homo sapiens, UniProt Q9NR22). Briefly: Selectivity interaction (Scintillation proximity assays) EUB0000255b PRMT8.
The target of assay [2] is T1, Serine/threonine-protein kinase D1 (Homo sapiens) (UniProt Q15139).
T1 sequence (whole entry): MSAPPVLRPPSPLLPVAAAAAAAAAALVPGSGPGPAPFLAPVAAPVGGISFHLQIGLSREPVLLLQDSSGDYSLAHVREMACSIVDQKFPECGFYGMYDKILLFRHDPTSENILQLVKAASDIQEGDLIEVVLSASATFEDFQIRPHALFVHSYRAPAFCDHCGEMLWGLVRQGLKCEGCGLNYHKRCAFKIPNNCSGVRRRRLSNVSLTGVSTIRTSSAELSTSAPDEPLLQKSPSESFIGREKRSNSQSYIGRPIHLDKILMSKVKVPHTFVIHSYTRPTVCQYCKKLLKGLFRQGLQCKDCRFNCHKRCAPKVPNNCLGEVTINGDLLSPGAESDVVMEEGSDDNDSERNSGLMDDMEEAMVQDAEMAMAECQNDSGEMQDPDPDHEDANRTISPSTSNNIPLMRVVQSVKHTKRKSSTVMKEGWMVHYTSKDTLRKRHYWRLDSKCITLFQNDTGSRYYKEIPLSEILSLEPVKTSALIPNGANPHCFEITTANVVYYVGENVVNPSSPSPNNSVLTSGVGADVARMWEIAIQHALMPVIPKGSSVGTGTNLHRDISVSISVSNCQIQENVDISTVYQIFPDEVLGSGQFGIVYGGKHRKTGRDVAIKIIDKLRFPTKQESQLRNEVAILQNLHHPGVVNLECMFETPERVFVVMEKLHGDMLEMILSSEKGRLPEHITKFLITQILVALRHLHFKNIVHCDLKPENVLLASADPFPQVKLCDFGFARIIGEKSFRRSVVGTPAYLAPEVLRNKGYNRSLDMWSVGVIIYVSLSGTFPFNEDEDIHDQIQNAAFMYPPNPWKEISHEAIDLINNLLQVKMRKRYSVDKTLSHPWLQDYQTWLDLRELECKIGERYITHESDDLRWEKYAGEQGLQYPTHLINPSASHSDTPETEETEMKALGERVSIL
Nature of the assay: Selectivity interaction (KinomeScan (DiscoverX)) EUB0000655a PRKD1. Particulars: at 10 µM.

Assay [3] addresses Macrophage colony-stimulating factor 1 receptor (Homo sapiens) (UniProt P07333). Nature of the assay: Selectivity interaction (Kinase screening (Nanosyn)) EUB0000604a CSF1R.
Assay [4] has as its target Misshapen-like kinase 1 (Homo sapiens, UniProt Q8N4C8). Nature of the assay: Selectivity interaction (Kinase screening (Nanosyn)) EUB0000604a MINK1.
In assay [5] the target is Adenosine receptor A3 (Homo sapiens) (UniProt P0DMS8). Nature of the assay: Selectivity interaction (Eurofins CEREP Diversity Profile (receptors and ion channels)) EUB0000279b ADORA3. Particulars: at 10 µM.
Assay [6] deals with Mitogen-activated protein kinase 3 (Homo sapiens, UniProt P27361). Nature of the assay: Selectivity interaction (KinomeScan (DiscoverX)) EUB0000666a MAPK3. Particulars: at 10 µM.
Assay [7] addresses Serine/threonine-protein kinase WNK1 (Homo sapiens) (UniProt Q9H4A3). Briefly: Selectivity interaction (KinomeScan (DiscoverX)) EUB0000666a WNK1. Particulars: at 10 µM.
Assay [8] has as its target T2, Mitogen-activated protein kinase kinase kinase kinase 2 (Homo sapiens) (UniProt Q12851).
T2 sequence (whole entry): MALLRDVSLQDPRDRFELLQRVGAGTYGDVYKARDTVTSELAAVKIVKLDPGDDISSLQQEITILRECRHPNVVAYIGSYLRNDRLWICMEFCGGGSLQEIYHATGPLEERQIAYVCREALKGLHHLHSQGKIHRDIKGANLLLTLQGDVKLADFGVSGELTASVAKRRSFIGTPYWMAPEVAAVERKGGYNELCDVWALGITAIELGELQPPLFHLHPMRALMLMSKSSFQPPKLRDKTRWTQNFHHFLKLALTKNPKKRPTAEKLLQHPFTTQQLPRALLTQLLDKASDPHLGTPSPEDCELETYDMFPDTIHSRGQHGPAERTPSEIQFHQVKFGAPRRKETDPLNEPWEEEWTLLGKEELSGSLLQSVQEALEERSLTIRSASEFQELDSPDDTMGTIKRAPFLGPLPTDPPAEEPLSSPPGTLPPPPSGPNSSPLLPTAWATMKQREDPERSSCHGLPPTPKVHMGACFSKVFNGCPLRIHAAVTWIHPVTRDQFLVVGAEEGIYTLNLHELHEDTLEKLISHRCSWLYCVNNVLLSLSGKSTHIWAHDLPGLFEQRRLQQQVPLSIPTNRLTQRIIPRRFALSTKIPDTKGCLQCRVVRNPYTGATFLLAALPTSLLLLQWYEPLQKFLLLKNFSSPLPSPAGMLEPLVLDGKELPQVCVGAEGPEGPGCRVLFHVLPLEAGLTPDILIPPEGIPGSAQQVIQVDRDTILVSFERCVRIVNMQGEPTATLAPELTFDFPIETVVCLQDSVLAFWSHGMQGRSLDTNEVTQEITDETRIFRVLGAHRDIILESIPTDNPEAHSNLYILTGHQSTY
Nature of the assay: Selectivity interaction (ActivX KiNativ screen (kinase selectivity in THP-1 cell lysates)) EUB0000639a MAP4K2. The class given is subcellular. Particulars: lysate, at 0.04 µM.

In assay [9] the target is T3, Cyclin-dependent kinase-like 2 (Homo sapiens) (UniProt Q92772).
T3 sequence (whole entry): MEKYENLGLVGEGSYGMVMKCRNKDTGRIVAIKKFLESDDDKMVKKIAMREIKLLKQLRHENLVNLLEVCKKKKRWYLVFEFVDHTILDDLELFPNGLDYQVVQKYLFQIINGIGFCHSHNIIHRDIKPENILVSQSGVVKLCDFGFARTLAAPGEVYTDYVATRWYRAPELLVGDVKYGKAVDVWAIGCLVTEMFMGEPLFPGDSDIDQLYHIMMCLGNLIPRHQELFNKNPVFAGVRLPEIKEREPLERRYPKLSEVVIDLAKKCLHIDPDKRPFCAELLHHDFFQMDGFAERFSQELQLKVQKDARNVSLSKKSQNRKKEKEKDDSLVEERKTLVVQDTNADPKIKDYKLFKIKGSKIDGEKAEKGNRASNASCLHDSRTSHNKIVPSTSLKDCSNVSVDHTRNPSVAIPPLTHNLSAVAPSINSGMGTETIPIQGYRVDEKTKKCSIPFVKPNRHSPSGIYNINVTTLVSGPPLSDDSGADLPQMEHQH
Briefly: Selectivity interaction (KinomeScan (DiscoverX)) EUB0000229b CDKL2. Particulars: at 10 µM.

Assay [10] concerns the target Mitogen-activated protein kinase 1 (Homo sapiens, UniProt P28482). Nature of the assay: Selectivity interaction (Kinase panel (33PanQinase(R) Activity Assay)) EUB0000877a MAPK1.
Assay [11] concerns the target Nuclear body protein SP140-like protein (Homo sapiens) (UniProt Q9H930). Briefly: Selectivity interaction (Human bromodomain panel (DSF assay)) EUB0000233b SP140L.
The target of assay [12] is Hepatocyte growth factor receptor (Homo sapiens, UniProt P08581). Nature of the assay: Selectivity interaction (Kinase panel (literature)) EUB0001199aCl MET. Particulars: at 1 µM.

Chain of Serine/threonine-protein kinase WNK1 (Homo sapiens) (Q9H4A3 whole entry, looked up): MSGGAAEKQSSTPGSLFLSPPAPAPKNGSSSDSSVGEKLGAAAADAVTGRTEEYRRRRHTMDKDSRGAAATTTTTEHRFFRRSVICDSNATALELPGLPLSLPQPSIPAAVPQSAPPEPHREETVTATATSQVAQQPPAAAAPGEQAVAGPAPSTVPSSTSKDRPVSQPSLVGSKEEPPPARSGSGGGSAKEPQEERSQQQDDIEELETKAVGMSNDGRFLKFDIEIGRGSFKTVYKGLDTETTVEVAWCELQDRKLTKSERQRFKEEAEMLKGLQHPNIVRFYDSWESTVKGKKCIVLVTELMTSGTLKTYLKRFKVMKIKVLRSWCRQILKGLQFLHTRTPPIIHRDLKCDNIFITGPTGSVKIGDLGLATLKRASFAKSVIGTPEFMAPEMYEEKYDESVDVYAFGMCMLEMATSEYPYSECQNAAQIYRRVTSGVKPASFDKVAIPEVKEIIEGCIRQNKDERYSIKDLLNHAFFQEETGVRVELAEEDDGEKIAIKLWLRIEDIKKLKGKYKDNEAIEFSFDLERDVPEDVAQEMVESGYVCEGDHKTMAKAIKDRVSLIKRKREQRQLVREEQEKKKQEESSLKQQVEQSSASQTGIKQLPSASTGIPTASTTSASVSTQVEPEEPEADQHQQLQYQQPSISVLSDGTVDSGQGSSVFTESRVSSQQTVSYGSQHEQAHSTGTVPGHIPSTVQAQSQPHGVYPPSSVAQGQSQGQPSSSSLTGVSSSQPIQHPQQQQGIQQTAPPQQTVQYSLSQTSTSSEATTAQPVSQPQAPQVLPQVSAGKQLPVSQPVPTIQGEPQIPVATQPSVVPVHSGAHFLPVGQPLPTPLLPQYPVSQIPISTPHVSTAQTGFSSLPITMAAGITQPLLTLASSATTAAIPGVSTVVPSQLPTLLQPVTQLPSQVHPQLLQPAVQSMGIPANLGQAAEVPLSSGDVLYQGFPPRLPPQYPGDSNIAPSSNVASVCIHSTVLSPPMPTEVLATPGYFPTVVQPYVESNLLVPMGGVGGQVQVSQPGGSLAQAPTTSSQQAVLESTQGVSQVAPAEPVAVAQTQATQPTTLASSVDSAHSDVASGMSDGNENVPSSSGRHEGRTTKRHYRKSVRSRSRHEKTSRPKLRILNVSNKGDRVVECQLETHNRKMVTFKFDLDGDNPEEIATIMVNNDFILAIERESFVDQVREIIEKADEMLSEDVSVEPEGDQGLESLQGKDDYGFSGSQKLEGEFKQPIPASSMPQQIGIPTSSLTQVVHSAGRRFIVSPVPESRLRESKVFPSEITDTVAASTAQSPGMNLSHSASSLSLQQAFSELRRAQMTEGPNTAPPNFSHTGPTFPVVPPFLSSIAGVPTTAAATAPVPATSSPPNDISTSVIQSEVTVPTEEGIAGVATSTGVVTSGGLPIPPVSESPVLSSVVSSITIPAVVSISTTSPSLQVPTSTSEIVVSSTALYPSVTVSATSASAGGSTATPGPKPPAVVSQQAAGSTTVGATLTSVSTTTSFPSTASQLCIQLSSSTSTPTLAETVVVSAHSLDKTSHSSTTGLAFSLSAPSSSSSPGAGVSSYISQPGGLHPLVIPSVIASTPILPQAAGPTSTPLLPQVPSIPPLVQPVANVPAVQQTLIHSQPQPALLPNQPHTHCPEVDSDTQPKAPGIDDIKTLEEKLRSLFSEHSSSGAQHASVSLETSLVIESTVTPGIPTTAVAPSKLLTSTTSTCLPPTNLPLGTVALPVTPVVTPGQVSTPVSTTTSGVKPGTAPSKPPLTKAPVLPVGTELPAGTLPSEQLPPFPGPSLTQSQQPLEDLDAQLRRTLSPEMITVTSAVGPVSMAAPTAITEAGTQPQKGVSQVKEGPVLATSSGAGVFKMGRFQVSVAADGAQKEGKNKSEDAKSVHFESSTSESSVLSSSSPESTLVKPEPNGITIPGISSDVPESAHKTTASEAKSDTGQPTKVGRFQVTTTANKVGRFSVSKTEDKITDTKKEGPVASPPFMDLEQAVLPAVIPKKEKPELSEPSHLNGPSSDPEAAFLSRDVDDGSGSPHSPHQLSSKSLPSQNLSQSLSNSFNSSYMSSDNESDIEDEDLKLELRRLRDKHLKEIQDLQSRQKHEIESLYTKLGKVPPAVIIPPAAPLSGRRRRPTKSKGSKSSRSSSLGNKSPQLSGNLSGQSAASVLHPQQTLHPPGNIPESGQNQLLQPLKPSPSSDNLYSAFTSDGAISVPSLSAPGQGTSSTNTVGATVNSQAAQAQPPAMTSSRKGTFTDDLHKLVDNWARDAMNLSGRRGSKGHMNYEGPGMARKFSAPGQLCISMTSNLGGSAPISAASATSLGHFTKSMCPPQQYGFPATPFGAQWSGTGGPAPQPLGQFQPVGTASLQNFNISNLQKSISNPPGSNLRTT
Chain of Adenosine receptor A3 (Homo sapiens) (P0DMS8 whole entry): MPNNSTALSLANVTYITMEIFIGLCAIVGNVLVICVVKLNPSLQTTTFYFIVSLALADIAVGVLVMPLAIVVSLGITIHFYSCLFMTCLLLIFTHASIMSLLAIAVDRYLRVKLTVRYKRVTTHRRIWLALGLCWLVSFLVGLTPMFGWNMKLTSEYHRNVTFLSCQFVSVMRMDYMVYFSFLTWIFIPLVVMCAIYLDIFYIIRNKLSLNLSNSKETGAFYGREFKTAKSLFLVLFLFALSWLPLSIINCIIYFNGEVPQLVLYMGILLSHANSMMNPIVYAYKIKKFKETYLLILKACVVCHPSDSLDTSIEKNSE
Chain of Mitogen-activated protein kinase 1 (P28482 whole entry): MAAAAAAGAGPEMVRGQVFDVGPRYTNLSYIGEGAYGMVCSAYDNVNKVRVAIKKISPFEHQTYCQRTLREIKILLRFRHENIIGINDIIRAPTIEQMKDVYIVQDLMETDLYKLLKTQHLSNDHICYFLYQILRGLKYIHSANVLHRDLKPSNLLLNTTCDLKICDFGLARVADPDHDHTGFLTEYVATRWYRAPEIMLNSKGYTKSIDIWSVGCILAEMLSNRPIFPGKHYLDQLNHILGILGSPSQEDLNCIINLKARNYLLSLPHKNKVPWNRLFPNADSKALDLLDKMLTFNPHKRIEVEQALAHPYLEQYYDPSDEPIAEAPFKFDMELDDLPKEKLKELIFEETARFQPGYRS
Chain of Protein arginine N-methyltransferase 8 (Q9NR22 whole entry): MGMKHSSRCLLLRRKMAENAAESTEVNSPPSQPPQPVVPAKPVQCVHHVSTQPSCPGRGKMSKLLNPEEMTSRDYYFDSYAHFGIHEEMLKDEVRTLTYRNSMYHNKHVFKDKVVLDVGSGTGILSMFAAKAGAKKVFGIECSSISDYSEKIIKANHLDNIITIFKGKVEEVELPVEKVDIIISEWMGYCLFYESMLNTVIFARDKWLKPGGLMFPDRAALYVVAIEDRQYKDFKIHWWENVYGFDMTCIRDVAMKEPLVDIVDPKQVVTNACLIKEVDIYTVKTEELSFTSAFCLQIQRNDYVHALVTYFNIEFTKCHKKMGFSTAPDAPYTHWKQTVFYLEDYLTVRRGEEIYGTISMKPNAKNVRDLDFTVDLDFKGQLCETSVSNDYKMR
Chain of Misshapen-like kinase 1 (Q8N4C8 whole entry, looked up): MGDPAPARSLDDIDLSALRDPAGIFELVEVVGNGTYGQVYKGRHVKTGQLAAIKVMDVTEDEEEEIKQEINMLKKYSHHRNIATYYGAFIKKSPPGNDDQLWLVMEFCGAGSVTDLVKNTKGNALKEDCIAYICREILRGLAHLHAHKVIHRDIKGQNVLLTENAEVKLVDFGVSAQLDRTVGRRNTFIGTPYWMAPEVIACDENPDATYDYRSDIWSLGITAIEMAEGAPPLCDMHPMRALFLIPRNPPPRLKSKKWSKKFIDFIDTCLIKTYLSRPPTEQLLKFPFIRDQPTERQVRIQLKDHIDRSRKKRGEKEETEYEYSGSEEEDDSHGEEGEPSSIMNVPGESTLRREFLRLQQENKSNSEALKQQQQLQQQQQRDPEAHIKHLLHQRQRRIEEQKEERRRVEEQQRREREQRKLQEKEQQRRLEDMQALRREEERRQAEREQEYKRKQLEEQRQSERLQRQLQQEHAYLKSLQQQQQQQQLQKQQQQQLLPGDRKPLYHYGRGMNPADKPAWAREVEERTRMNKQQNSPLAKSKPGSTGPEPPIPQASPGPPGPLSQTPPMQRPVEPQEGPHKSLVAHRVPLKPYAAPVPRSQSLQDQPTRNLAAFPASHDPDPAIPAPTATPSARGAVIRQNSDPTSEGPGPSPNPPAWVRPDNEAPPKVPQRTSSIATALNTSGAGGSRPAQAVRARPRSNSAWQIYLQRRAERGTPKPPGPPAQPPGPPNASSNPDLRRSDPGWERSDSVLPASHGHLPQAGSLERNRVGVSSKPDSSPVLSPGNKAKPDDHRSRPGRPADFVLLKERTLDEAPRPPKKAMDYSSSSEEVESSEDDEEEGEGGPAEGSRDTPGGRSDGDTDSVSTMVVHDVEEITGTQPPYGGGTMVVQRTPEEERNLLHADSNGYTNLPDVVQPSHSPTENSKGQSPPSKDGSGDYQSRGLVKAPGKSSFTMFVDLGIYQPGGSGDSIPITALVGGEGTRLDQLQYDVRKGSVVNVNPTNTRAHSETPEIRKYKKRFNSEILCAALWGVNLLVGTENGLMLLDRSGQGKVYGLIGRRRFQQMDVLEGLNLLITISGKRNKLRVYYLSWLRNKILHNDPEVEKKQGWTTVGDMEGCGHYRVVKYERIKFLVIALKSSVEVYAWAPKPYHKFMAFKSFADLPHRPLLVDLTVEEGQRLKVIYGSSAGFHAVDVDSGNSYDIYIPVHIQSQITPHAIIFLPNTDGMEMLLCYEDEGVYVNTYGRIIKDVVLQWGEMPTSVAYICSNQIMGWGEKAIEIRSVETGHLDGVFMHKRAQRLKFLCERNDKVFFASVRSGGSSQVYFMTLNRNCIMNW

In [1], `COCCN1CCC(c2cc(CN(C)C(=O)c3cccc(Oc4ccccc4)c3)ccn2)CC1` had a pIC50 below 5.00.
The compound `CN(C)CCOc1ccc(-c2nc(-c3ccncc3)c(-c3ccc4c(c3)CC/C4=N\O)[nH]2)cc1` had a % of control in assay [2] of 3.8%.
On to `Cc1cnc(Nc2ccc(F)cc2Cl)nc1-c1c[nH]c(C(=O)N[C@H](CO)c2cccc(Cl)c2)c1`, for which the results for the % of inhibition in assay [3] and in assay [4] were 6% and 18%, respectively.
Consider `CC(=O)c1cc(-c2ccccc2OCC2CC2)c2ncccn12`, for which the % of control in assay [5] was found to be 23%.
Regarding `O=C(NOC[C@H](O)CO)c1ccc(F)c(F)c1Nc1ccc(I)cc1F`, the % of control in [6] worked out at 86%; in assay [7], 92%.
On to `CC[C@@H]1[C@H](F)C(=O)N[C@@H]1COc1nccc2cc(C(N)=O)c(OC)cc12` [ZIMLOVISERTIB], for which, in assay [8], the % of inhibition is -1%.
Turning to `COc1cc(N(C)c2ccnc3ccc(C(F)(F)F)cc23)cc(OC)c1OC`, in [9], the % binding came out at 90%.
With `CCC(=O)N1CC[C@H](Nc2ncnc3c2CN(c2cnc(OC)c(C(F)(F)F)c2)CC3)C1` [LENIOLISIB], the pIC50 in assay [10] is below 5.00.
In [11], `CN(C)CCCOc1ccc(-c2cc(NCCCn3cccn3)nc(S(C)(=O)=O)n2)cc1` yielded a dTM below 2 K.
Turning to `CN1Cc2nccc(-c3cn(C)nc3-c3ccc(F)cc3)c2C1=O`, the % of inhibition in [12] was determined as 10%.
